Data: US5288720A, “Angiotensin II receptor blocking 2,3,6 substituted quinazolinones” (American Cyanamid Company, priority 1993, dated 1994)

Tested on: ANGIOTENSIN II VASOPRESSOR RESPONSE
Assay: AII Challenge: blockade of angiotensin II vasopressor response in conscious SHR
Type: in vivo, rat (Conscious Male Okamoto-Aoki SHR)
Settings: SHR n=2
How it was run: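 Conscious male Okamoto-Aoki SHR (16-20 weeks, ~330 g) cannulated in aorta and vena cava under local procaine; angiotensin II (human) 0.05 and 0.1 ug/kg i.v. given before and at 30-300 min after test compound i.v., i.p. or orally. Rise in systolic pressure (mmHg) expressed as % blockade versus each rat's predose response.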

[1] = 3 mg/kg i.v., AII 0.05 mcg/kg IV, 30 min post dose
[2] = 3 mg/kg i.v., AII 0.05 mcg/kg IV, 60 min post dose
[3] = 3 mg/kg i.v., AII 0.05 mcg/kg IV, 90 min post dose
[4] = 3 mg/kg i.v., AII 0.05 mcg/kg IV, 120 min post dose
[5] = 3 mg/kg i.v., AII 0.05 mcg/kg IV, 180 min post dose
[6] = 3 mg/kg i.v., AII 0.05 mcg/kg IV, 240 min post dose
[7] = 3 mg/kg i.v., AII 0.05 mcg/kg IV, 300 min post dose
[8] = 3 mg/kg i.v., AII 0.1 mcg/kg IV, 30 min post dose
[9] = 3 mg/kg i.v., AII 0.1 mcg/kg IV, 60 min post dose
[10] = 3 mg/kg i.v., AII 0.1 mcg/kg IV, 90 min post dose
[11] = 3 mg/kg i.v., AII 0.1 mcg/kg IV, 120 min post dose
[12] = 3 mg/kg i.v., AII 0.1 mcg/kg IV, 180 min post dose
[13] = 3 mg/kg i.v., AII 0.1 mcg/kg IV, 240 min post dose
[14] = 3 mg/kg i.v., AII 0.1 mcg/kg IV, 300 min post dose
[15] = 3 mg/kg p.o., AII 0.05 mcg/kg IV, 30 min post dose
[16] = 3 mg/kg p.o., AII 0.05 mcg/kg IV, 60 min post dose
[17] = 3 mg/kg p.o., AII 0.05 mcg/kg IV, 90 min post dose
[18] = 3 mg/kg p.o., AII 0.05 mcg/kg IV, 120 min post dose
[19] = 3 mg/kg p.o., AII 0.05 mcg/kg IV, 180 min post dose
[20] = 3 mg/kg p.o., AII 0.1 mcg/kg IV, 30 min post dose
[21] = 3 mg/kg p.o., AII 0.1 mcg/kg IV, 60 min post dose
[22] = 3 mg/kg p.o., AII 0.1 mcg/kg IV, 90 min post dose
[23] = 3 mg/kg p.o., AII 0.1 mcg/kg IV, 120 min post dose
[24] = 3 mg/kg p.o., AII 0.1 mcg/kg IV, 180 min post dose
[25] = 10 mg/kg p.o., AII 0.05 mcg/kg IV, 30 min post dose
[26] = 10 mg/kg p.o., AII 0.05 mcg/kg IV, 60 min post dose
[27] = 10 mg/kg p.o., AII 0.05 mcg/kg IV, 90 min post dose
[28] = 10 mg/kg p.o., AII 0.05 mcg/kg IV, 120 min post dose
[29] = 10 mg/kg p.o., AII 0.05 mcg/kg IV, 180 min post dose
[30] = 10 mg/kg p.o., AII 0.05 mcg/kg IV, 240 min post dose
[31] = 10 mg/kg p.o., AII 0.05 mcg/kg IV, 300 min post dose
[32] = 10 mg/kg p.o., AII 0.1 mcg/kg IV, 30 min post dose
[33] = 10 mg/kg p.o., AII 0.1 mcg/kg IV, 60 min post dose
[34] = 10 mg/kg p.o., AII 0.1 mcg/kg IV, 90 min post dose
[35] = 10 mg/kg p.o., AII 0.1 mcg/kg IV, 120 min post dose
[36] = 10 mg/kg p.o., AII 0.1 mcg/kg IV, 180 min post dose
[37] = 10 mg/kg p.o., AII 0.1 mcg/kg IV, 240 min post dose
[38] = 10 mg/kg p.o., AII 0.1 mcg/kg IV, 300 min post dose

In the case of `CCCCc1nc2ccc(C(O)C3CCCN(C)C3=O)cc2c(=O)n1Cc1ccc(-c2ccccc2-c2nn[nH]n2)cc1` (single isomer, unassigned; isomer 1) [Example 37, 2-Butyl-6-hydroxy(1-methyl-2-oxo-3-piperidinyl)methyl]-3-[[2'-(1H-tetrazol-5-yl)[1,1'-biphenyl]-4-yl]methyl]-4(3H)-quinazolinone isomer 1], the “% Inhibition of AII vasopressor response” value [1] is reported as 100%, the “Average Change (systolic blood pressure response to AII)” value (“Average Change” below) [1] is reported as 0 mmHg and the “% Inhibition of AII vasopressor response” value [2] is reported as 100%. For the same compound, the “Average Change” value [2] was 0 mmHg, the “% Inhibition of AII vasopressor response” value [3] was 100% and the “Average Change” value [3] was 0 mmHg. The “% Inhibition of AII vasopressor response” value [4] was 91%, the “Average Change” value [4] was 2.5 mmHg and the “% Inhibition of AII vasopressor response” value [5] was 55%. The “Average Change” value [5] was 12.5 mmHg, the “% Inhibition of AII vasopressor response” value [6] was 64% and the “Average Change” value [6] was 10 mmHg. The “% Inhibition of AII vasopressor response” value [7] was 36%, the “Average Change” value [7] was 17.5 mmHg and the “% Inhibition of AII vasopressor response” value [8] was 92%. The “Average Change” value [8] was 2.5 mmHg, the “% Inhibition of AII vasopressor response” value [9] was 92% and the “Average Change” value [9] was 2.5 mmHg. The “% Inhibition of AII vasopressor response” value [10] was 85%, the “Average Change” value [10] was 5 mmHg and the “% Inhibition of AII vasopressor response” value [11] was 85%. The “Average Change” value [11] was 5 mmHg, the “% Inhibition of AII vasopressor response” value [12] was 66% and the “Average Change” value [12] was 11 mmHg. The “% Inhibition of AII vasopressor response” value [13] was 23%, the “Average Change” value [13] was 25 mmHg and the “% Inhibition of AII vasopressor response” value [14] was 0%. For the same compound, the “Average Change” value [14] was 32.5 mmHg, the “% Inhibition of AII vasopressor response” value [15] was 53% and the “Average Change” value [15] was 19 mmHg. For the same compound, the “% Inhibition of AII vasopressor response” value [16] was 29%, the “Average Change” value [16] was 28.5 mmHg and the “% Inhibition of AII vasopressor response” value [17] was 29%. The “Average Change” value [17] was 28.5 mmHg, the “% Inhibition of AII vasopressor response” value [18] was 13% and the “Average Change” value [18] was 35 mmHg. For the same compound, the “% Inhibition of AII vasopressor response” value [19] was 0%, the “Average Change” value [19] was 40 mmHg and the “% Inhibition of AII vasopressor response” value [20] was -6%. For the same compound, the “Average Change” value [20] was 47.5 mmHg, the “% Inhibition of AII vasopressor response” value [21] was 30% and the “Average Change” value [21] was 31.5 mmHg. The “% Inhibition of AII vasopressor response” value [22] was 11%, the “Average Change” value [22] was 40 mmHg and the “% Inhibition of AII vasopressor response” value [23] was 22%. For the same compound, the “Average Change” value [23] was 35 mmHg, the “% Inhibition of AII vasopressor response” value [24] was 22% and the “Average Change” value [24] was 35 mmHg. The “% Inhibition of AII vasopressor response” value [25] was 67%, the “Average Change” value [25] was 17.5 mmHg and the “% Inhibition of AII vasopressor response” value [26] was 65%. The “Average Change” value [26] was 18.5 mmHg, the “% Inhibition of AII vasopressor response” value [27] was 62% and the “Average Change” value [27] was 20 mmHg. The “% Inhibition of AII vasopressor response” value [28] was 67%, the “Average Change” value [28] was 17.5 mmHg and the “% Inhibition of AII vasopressor response” value [29] was 57%. For the same compound, the “Average Change” value [29] was 22.5 mmHg, the “% Inhibition of AII vasopressor response” value [30] was 43% and the “Average Change” value [30] was 30 mmHg. The “% Inhibition of AII vasopressor response” value [31] was 52%, the “Average Change” value [31] was 25 mmHg and the “% Inhibition of AII vasopressor response” value [32] was 40%. The “Average Change” value [32] was 30 mmHg, the “% Inhibition of AII vasopressor response” value [33] was 26% and the “Average Change” value [33] was 37 mmHg. For the same compound, the “% Inhibition of AII vasopressor response” value [34] was 40%, the “Average Change” value [34] was 30 mmHg and the “% Inhibition of AII vasopressor response” value [35] was 55%. The “Average Change” value [35] was 22.5 mmHg, the “% Inhibition of AII vasopressor response” value [36] was 35% and the “Average Change” value [36] was 32.5 mmHg. For the same compound, the “% Inhibition of AII vasopressor response” value [37] was 40%, the “Average Change” value [37] was 30 mmHg and the “% Inhibition of AII vasopressor response” value [38] was 35%. The “Average Change” value [38] was 32.5 mmHg.
